Source: ChEMBL document CHEMBL3632549, “Targeting EGFR/HER2 tyrosine kinases with a new potent series of 6-substituted 4-anilinoquinazoline hybrids: Design, synthesis, kinase assay, cell-based assay, and molecular docking” (Bioorg Med Chem Lett, 2015)

Key:
[1] = molecular target: Epidermal growth factor receptor (Homo sapiens, UniProt P00533); assay: Inhibition of EGFR (unknown origin) after 120 mins by HotSpot assay
[2] = molecular target: Receptor tyrosine-protein kinase erbB-2 (Homo sapiens, UniProt P04626); assay: Inhibition of HER2 (unknown origin) after 120 mins by HotSpot assay
[3] = test system: BT-474; assay: Cytotoxicity against human BT474 cells expressing HER2 after 72 hrs by Cell Titer Glo assay; type: functional; settings: BT-474, 72 h
[4] = Cytotoxicity against human L-132 cells after 48 hrs by MTT assay; type: cell-based; settings: L132, 48 h
[5] = molecular target: Cyclin-dependent kinase 2 (Homo sapiens, UniProt P24941); assay: Inhibition of CDK2 (unknown origin) after 120 mins by HotSpot assay
[6] = molecular target: Hepatocyte growth factor receptor (Homo sapiens, UniProt P08581); assay: Inhibition of c-MET (unknown origin) after 120 mins by HotSpot assay
[7] = molecular target: Focal adhesion kinase 1 (Homo sapiens, UniProt Q05397); assay: Inhibition of FAK (unknown origin) after 120 mins by HotSpot assay
[8] = molecular target: Fibroblast growth factor receptor 1 (Homo sapiens, UniProt P11362); assay: Inhibition of FGFR1 (unknown origin) after 120 mins by HotSpot assay
[9] = molecular target: Insulin-like growth factor 1 receptor (Homo sapiens, UniProt P08069); assay: Inhibition of IGF1R (unknown origin) after 120 mins by HotSpot assay
[10] = molecular target: Vascular endothelial growth factor receptor 2 (Homo sapiens, UniProt P35968); assay: Inhibition of VEGFR2 (unknown origin) after 120 mins by HotSpot assay
[11] = molecular target: Tyrosine-protein kinase Lck (Homo sapiens, UniProt P06239); assay: Inhibition of LCK (unknown origin) after 120 mins by HotSpot assay
[12] = molecular target: Mitogen-activated protein kinase 14 (Homo sapiens, UniProt Q16539); assay: Inhibition of P38a (unknown origin) after 120 mins by HotSpot assay
[13] = molecular target: MAP kinase-activated protein kinase 2 (Homo sapiens, UniProt P49137); assay: Inhibition of MAPKAPK2 (unknown origin) after 120 mins by HotSpot assay

Sequence of Receptor tyrosine-protein kinase erbB-2 (P04626 whole entry): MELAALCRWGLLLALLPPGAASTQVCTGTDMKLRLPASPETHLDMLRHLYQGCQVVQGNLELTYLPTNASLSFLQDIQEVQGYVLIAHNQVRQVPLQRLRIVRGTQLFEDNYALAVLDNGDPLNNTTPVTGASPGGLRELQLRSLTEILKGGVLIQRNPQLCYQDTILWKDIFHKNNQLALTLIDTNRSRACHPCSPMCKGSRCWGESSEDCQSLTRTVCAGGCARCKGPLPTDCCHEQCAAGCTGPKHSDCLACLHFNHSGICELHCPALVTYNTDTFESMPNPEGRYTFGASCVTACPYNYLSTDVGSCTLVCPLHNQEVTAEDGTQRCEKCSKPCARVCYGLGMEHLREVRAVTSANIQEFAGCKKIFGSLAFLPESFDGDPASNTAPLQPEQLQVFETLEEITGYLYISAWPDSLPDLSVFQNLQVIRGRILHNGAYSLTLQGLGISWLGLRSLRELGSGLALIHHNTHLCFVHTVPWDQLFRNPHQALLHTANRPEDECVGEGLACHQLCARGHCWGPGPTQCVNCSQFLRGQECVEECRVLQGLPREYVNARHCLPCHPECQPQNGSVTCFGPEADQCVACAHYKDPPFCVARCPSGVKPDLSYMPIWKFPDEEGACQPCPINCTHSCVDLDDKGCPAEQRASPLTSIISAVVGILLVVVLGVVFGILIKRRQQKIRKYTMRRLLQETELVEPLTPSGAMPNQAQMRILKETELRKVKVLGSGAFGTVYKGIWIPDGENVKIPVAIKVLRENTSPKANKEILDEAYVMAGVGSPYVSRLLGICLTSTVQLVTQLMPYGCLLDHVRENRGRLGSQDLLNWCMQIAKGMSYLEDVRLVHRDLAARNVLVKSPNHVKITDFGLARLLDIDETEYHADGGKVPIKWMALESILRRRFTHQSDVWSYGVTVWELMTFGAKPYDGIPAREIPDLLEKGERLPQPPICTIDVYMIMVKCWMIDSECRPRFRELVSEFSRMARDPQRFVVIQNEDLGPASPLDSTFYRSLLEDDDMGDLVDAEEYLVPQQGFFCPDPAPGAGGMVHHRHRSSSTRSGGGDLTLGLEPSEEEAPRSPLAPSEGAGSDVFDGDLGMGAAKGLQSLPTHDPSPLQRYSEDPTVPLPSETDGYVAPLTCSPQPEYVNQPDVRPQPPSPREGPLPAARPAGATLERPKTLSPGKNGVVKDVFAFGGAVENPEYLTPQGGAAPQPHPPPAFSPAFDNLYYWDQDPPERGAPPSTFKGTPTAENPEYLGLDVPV
Sequence of Epidermal growth factor receptor (P00533 whole entry): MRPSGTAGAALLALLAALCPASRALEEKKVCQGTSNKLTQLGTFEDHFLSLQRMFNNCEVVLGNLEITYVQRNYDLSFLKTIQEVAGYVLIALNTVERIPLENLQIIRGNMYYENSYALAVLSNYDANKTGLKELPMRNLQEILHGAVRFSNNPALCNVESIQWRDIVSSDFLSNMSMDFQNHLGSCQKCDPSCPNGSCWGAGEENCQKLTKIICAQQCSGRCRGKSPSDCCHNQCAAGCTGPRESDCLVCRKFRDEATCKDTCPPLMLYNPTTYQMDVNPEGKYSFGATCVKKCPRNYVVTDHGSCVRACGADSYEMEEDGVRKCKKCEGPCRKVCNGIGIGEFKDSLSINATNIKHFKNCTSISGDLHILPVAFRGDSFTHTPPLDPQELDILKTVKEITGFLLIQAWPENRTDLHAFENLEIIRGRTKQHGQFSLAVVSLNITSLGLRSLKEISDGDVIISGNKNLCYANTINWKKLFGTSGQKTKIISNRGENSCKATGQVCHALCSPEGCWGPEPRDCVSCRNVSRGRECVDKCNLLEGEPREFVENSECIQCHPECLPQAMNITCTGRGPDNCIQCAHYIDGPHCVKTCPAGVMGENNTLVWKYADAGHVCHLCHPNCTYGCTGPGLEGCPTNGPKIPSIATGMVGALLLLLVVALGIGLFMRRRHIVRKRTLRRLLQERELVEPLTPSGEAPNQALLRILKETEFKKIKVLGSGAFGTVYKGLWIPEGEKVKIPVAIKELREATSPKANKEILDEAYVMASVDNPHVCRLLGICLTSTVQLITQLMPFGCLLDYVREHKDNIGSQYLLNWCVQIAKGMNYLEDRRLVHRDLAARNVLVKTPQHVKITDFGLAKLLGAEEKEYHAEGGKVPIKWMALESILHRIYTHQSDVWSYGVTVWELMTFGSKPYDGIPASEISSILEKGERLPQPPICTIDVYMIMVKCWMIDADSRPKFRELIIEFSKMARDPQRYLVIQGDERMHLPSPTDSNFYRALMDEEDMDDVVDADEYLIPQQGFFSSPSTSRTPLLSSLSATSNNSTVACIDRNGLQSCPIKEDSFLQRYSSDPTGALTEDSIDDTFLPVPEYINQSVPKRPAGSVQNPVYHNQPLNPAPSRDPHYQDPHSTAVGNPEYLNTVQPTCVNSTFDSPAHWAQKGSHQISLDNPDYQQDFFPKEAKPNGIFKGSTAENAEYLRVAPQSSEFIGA
Sequence of Hepatocyte growth factor receptor (P08581 whole entry): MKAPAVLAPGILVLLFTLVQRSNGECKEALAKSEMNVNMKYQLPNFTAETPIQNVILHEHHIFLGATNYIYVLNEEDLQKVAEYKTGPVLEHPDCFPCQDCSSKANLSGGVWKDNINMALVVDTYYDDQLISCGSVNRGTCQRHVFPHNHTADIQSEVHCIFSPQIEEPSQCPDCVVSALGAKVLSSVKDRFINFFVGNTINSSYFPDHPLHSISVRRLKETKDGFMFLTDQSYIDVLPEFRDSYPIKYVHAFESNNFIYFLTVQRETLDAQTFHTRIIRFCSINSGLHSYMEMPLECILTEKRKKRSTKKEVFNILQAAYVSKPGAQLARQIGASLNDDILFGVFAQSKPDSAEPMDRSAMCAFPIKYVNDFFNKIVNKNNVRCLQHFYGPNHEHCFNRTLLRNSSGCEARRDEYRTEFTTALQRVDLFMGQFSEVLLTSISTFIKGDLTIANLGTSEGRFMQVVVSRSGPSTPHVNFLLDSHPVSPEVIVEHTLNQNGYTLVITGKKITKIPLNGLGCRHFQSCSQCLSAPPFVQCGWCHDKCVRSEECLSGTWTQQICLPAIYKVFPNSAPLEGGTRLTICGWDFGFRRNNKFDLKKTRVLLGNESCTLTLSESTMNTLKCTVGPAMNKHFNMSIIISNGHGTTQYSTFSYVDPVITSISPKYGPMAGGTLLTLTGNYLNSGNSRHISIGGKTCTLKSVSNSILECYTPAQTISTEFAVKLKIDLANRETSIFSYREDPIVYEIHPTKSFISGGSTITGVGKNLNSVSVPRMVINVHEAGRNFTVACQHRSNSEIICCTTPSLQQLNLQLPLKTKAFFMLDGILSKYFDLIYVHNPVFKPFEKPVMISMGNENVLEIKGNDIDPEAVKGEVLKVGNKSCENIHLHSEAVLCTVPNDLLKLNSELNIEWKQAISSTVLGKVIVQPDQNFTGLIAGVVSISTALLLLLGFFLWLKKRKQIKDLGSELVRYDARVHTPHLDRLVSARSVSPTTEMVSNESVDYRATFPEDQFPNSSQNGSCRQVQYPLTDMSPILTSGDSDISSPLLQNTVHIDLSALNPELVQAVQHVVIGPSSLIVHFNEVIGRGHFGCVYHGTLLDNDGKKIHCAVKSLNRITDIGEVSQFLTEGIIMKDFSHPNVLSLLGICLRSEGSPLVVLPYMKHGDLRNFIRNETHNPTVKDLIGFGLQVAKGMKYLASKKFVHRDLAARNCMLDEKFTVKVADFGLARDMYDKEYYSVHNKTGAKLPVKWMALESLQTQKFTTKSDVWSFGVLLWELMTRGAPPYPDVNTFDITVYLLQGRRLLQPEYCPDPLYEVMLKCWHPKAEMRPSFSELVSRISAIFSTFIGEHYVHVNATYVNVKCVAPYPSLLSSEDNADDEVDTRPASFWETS
Sequence of Mitogen-activated protein kinase 14 (Q16539 whole entry): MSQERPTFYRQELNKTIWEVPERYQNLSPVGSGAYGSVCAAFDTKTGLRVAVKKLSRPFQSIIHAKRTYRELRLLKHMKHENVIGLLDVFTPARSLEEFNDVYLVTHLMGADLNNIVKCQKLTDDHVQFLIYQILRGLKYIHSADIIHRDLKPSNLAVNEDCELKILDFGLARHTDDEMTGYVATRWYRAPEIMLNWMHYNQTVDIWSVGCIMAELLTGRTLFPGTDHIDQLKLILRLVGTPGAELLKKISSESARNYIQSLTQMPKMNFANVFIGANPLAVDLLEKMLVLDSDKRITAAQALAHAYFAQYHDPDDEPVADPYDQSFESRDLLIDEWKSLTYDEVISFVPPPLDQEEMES
Sequence of Fibroblast growth factor receptor 1 (P11362 whole entry): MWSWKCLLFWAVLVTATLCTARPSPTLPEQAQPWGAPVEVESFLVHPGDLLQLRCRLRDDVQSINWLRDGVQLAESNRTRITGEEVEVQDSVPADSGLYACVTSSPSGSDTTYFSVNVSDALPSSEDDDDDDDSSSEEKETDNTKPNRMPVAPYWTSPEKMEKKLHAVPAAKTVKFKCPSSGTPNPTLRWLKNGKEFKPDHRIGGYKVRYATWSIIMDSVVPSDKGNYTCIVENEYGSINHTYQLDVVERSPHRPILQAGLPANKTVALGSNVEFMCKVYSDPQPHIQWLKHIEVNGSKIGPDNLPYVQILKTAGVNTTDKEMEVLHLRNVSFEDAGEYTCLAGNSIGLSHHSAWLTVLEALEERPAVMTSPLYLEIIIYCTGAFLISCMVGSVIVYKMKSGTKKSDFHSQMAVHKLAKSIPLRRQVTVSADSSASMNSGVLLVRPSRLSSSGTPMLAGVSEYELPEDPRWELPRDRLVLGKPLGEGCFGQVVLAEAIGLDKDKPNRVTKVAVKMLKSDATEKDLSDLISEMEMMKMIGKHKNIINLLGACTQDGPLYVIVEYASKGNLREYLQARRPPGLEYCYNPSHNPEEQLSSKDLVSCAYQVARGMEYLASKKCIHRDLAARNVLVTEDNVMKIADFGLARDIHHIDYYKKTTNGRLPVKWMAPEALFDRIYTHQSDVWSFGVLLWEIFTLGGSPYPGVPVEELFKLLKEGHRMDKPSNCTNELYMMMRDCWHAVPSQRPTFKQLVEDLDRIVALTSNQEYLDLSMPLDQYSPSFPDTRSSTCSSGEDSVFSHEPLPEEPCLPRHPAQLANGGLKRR

Row | SMILES | IC50 [1] [nM] | IC50 [2] [nM] | GI50 [3] [nM] | other results
1 | CCOC(=O)C(=CNc1ccc2ncnc(Nc3ccc(OCc4ccccn4)c(Cl)c3)c2c1)C(=O)OCC | 1020 | 3290 |  | 
2 | CCNC(=O)Nc1ccc2ncnc(Nc3ccc(OCc4cccc(F)c4)c(Cl)c3)c2c1 | 35 | 126 | 1820 | IC50 [4]: > 100 µM
3 | NC(=O)Nc1ccc(C(=O)Nc2ccc3ncnc(Nc4ccc(F)c(Cl)c4)c3c2)cc1 | 9 | 275 |  | 
4 | CCOC(=O)C(=CNC(=O)Nc1ccc(C(=O)Nc2ccc3ncnc(Nc4ccc(F)c(Cl)c4)c3c2)cc1)C(=O)OCC | 1460 | > 10000 |  | 
5 | NC(=O)Nc1ccc2ncnc(Nc3ccc(Oc4ccc(Cl)c(Cl)c4)c(Cl)c3)c2c1 | 543 | 706 | 2380 | 
6 | CS(=O)(=O)CCNCc1ccc(-c2ccc3ncnc(Nc4ccc(OCc5cccc(F)c5)c(Cl)c4)c3c2)o1 [LAPATINIB] |  |  | 930 | 
7 | CC(=O)Nc1ccc2ncnc(Nc3ccc(OCc4ccccn4)c(Cl)c3)c2c1 | 3 | 16 | 2700 | IC50 [5]: Not Active; IC50 [6]: Not Active; IC50 [7]: Not Active; IC50 [8]: Not Active; IC50 [9]: Not Active; IC50 [10]: Not Active; IC50 [11]: 1220 nM; IC50 [12]: Not Active; IC50 [13]: Not Active; IC50 [4]: > 100 µM
8 | N#CC(C#N)=CNc1ccc2ncnc(Nc3ccc(Oc4ccc(Cl)c(Cl)c4)c(Cl)c3)c2c1 | > 10000 | > 10000 |  | 
9 | NC(=O)Nc1ccc2ncnc(Nc3ccc(Oc4cccc(C(F)(F)F)c4)c(Cl)c3)c2c1 | 4 | 77 | > 10000 | 
10 | N#CC(C#N)=CNc1ccc2ncnc(Nc3ccc(OCc4ccccn4)c(Cl)c3)c2c1 | 3050 | 8000 |  | 
11 | CCOC(=O)C(=CNc1ccc2ncnc(Nc3ccc(Oc4ccc(Cl)c(Cl)c4)c(Cl)c3)c2c1)C(=O)OCC | > 10000 | > 10000 |  | 
12 | CCNC(=O)Nc1ccc(C(=O)Nc2ccc3ncnc(Nc4ccc(F)c(Cl)c4)c3c2)cc1 | 31 | 855 |  | 
13 | CCNC(=O)Nc1ccc2ncnc(Nc3ccc(Oc4ccc(Cl)c(Cl)c4)c(Cl)c3)c2c1 | > 10000 | > 10000 | > 10000 | 
14 | CCOC(=O)C(=CNc1ccc2ncnc(Nc3ccc(Oc4cccc(C(F)(F)F)c4)c(Cl)c3)c2c1)C(=O)OCC | 23 | 1000 |  | 
15 | CCNC(=O)Nc1ccc2ncnc(Nc3ccc(Oc4cccc(C(F)(F)F)c4)c(Cl)c3)c2c1 | 29 | 625 | 3550 | 
16 | N#CC(C#N)=CNc1ccc2ncnc(Nc3ccc(OCc4cccc(F)c4)c(Cl)c3)c2c1 | 445 | 2720 |  | 
17 | CCOC(=O)C(=CNc1ccc2ncnc(Nc3ccc(OCc4cccc(F)c4)c(Cl)c3)c2c1)C(=O)OCC | 812 | 5050 |  | 
18 | NC(=O)Nc1ccc2ncnc(Nc3ccc(OCc4cccc(F)c4)c(Cl)c3)c2c1 | 99 | 287 | 4720 | 
19 | CCNC(=O)Nc1ccc2ncnc(Nc3ccc(OCc4ccccn4)c(Cl)c3)c2c1 | 227 | 1390 | 1950 | IC50 [4]: > 100 µM
